Measured values: patent US7432392B2, “Ester derivatives and medical use thereof” (Japan Tobacco Inc., priority 2003, dated 2008)
pIC50: −log10 of the molar value.

Biological target: T1, Microsomal triglyceride transfer protein (MTP) from bovine liver (Bos taurus, UniProt P55156)
T1 construct: the purified MTP was used for the test; from tissue; host or cells: bovine liver
T1 sequence (P55156 12-887): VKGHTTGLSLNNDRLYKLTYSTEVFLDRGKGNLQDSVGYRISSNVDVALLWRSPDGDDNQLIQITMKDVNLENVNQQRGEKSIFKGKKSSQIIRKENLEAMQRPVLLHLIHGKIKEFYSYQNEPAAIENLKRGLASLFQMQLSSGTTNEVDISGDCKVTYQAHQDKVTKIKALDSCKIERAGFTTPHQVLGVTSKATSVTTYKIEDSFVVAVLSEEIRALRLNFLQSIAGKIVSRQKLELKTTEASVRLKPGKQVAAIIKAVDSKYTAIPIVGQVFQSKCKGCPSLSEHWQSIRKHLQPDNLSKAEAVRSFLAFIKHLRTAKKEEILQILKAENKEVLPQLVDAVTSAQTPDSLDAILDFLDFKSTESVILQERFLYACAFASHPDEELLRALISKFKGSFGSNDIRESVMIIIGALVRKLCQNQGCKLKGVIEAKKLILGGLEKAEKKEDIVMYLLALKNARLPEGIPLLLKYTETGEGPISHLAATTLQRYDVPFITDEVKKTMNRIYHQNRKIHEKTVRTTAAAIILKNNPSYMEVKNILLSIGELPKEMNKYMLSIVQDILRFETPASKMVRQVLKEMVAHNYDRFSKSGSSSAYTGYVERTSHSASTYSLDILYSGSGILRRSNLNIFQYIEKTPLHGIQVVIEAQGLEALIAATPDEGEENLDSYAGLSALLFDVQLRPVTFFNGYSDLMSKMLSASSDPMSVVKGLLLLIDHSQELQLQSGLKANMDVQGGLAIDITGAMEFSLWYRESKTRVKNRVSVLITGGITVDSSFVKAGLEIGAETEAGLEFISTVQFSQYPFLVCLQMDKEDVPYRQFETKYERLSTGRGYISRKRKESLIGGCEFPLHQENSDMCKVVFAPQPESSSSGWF
T1 sequence (P05307 21-510 partner): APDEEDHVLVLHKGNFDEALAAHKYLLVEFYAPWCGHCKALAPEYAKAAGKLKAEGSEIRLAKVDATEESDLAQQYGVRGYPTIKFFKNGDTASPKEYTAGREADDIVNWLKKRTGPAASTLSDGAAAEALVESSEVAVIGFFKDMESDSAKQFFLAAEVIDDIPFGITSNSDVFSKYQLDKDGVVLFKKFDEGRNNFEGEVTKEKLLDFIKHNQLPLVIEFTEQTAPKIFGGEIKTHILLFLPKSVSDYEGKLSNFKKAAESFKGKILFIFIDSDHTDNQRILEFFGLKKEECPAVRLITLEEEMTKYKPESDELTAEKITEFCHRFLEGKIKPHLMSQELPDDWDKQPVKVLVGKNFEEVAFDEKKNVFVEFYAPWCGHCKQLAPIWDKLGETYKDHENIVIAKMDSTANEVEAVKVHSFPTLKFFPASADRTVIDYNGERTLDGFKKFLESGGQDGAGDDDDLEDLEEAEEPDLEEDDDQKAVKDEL
Experiment: Inhibition of interliposomal triglyceride (TG) transfer activity by MTP
Format: biochemical
Details: MTP-mediated TG transfer between donor and acceptor liposomes, 37° C., one hour
Protocol: Microsomal triglyceride transfer protein (MTP) from bovine liver was partially purified in such a way described below. A buffer (50 mM Tris, 250 mM sucrose, 1 mM EDTA, 0.02% NaN3 (pH 7.4)) for making a homogenate preparation was added to bovine liver, and the mixture was homogenated under ice-cooling, then centrifuged at 10,000×g (4° C., 30 minutes) The supernatant was adjusted to pH 5.1 with hydrochloric acid, and stirred for 30 minutes. The solution was further centrifuged at 10,000×g (4° C., 30 minutes), and 1 mM Tris buffer was added to the precipitated residue, and the mixture was adjusted to pH 8.6 with sodium hydroxide. After addition of 2.7 M ammonium sulfate solution, the mixture was stirred for 30 minutes, then centrifuged at 10,000×g (4° C., 40 minutes). The resulting supernatant was served as a crude extraction fraction of MTP and stored at −80° C. under freezing. In its practical use, the crude extraction fraction of MTP was purified by column chromatography on diethylaminoethyl (DEAE) Sepharose using FPLC (Fast Performance Liquid Chromatography) system, and the purified MTP was used for the test.
Small unilamellar-vesicle (SUV) liposome (donor, 0.25 mol % triolein, 5 mol % cardiolipin) labeled with ^14C-triolein and non-labeled SUV liposome (acceptor, 0.25 mol % triolein) were prepared. A fixed amount of donor and acceptor, and MTP were mixed with a sample dissolved in DMSO or with DMSO. The mixture was incubated in a 15 mM Tris hydrochloride buffer (pH 7.4) containing 40 mM sodium chloride, 1 mM EDTA (ethylenediaminetetraacetic acid), 0.02% NaN3 and 0.5% bovine serum albumin at 37° C. for one hour. After completion of the incubation, a suspension of DEAE cellulose (50% v/v) in 15 mM Tris hydrochloride buffer (pH 7.4) was added to the above solution, and the mixture was centrifuged to separate the donor and the acceptor. The radioactivity in the acceptor was measured by liquid scintillation counter. The value obtained by subtracting the radioactivity in the blank from the amount of radioactivity in the acceptor of a DMSO group was determined as MTP-mediated TG transfer activity, and it was compared with the value obtained by subtracting the radioactivity in the blank from the radioactivity in a sample group. The blank was prepared by adding 15 mM Tris-HCl buffer (pH 7.4) in place of MTP. Inhibition rate (%) was calculated from the values obtained according to the following equation.
Inhibition rate (%)=100×(1 minus ((radioactivity of sample group minus radioactivity of blank group)/(radioactivity of DMSO group minus radioactivity of blank group))). 50% Inhibition rate (IC50) was determined on the basis of the above equation.

SMILES | pIC50
CCOC(=O)C(COC(=O)Oc1cc(C(=O)N(C)C)c(NC(=O)c2ccccc2-c2ccc(C(F)(F)F)cc2)cc1Cl)(C(=O)OCC)c1ccccc1 [Example 2-6] | > 8.00
CCOC(=O)C(COC(=O)Cc1ccc(NC(=O)c2ccc(C)cc2-c2ccc(C(F)(F)F)cc2)c(OC(C)=O)c1)(C(=O)OCC)c1ccccc1 [Example 1-5] | > 8.00
CCOC(=O)C(COC(=O)Oc1ccc(NC(=O)c2ccccc2-c2ccc(C(F)(F)F)cc2)c(C(=O)N(C)C)c1)(C(=O)OCC)c1ccccn1 [Example 2-18] | > 8.00
CCOC(=O)C(COC(=O)Oc1c(F)cc(NC(=O)c2ccccc2-c2ccc(C(F)(F)F)cc2)c(C(=O)N2CCN(C(C)=O)CC2)c1F)(C(=O)OCC)c1cccs1 [Example 2-46] | 6.00 to 7.00
CCOC(=O)C(COC(=O)Oc1c(F)cc(NC(=O)c2cc(C)ccc2-c2ccc(C(F)(F)F)cc2)c(C(=O)N(C)C)c1F)(C(=O)OCC)c1cccs1 [Example 2-35] | 7.00 to 8.00
CCOC(=O)C(COC(=O)Oc1c(F)cc(NC(=O)c2ccc(C)cc2-c2ccc(C(F)(F)F)cc2)c(C(=O)N(C)C)c1F)(C(=O)OCC)c1cccs1 [Example 2-29] | > 8.00
CCOC(=O)C(COC(=O)Oc1ccc(NC(=O)c2ccccc2-c2ccc(C(F)(F)F)cc2)c(C(=O)N(C)C)c1)(C(=O)OCC)c1ccccc1 [Example 2-4] | > 8.00
CCOC(=O)C(CCC(=O)Oc1ccc(NC(=O)c2ccccc2-c2ccc(C(F)(F)F)cc2)c(C(=O)N(C)C)c1)(C(=O)OCC)c1ccccc1 [Example 3, 2-Ethoxycarbonyl-2-phenylpentanedioic acid 5-{3-dimethylcarbamoyl-4-[(4′-trifluoromethylbiphenyl-2-carbonyl)amino]phenyl}ester 1-ethyl ester] | > 8.00
CCN(C)C(=O)C(COC(=O)Oc1c(F)cc(NC(=O)c2ccccc2-c2ccc(C(F)(F)F)cc2)c(C(=O)N(C)C)c1F)(C(=O)N(C)CC)c1ccccc1 [Example 2-31] | 7.00 to 8.00
CCOC(=O)C(COC(=O)Oc1ccc(NC(=O)c2ccccc2-c2ccc(C(F)(F)F)cc2)c(C(=O)N(C)C)c1)(C(=O)OCC)c1cccs1 [Example 2-7] | > 8.00
CCOC(=O)C(COC(=O)Oc1c(F)cc(NC(=O)c2ccc(C)cc2-c2ccc(C(F)(F)F)cc2)c(C(=O)N2CCOCC2)c1F)(C(=O)OCC)c1cccs1 [Example 2-43] | 7.00 to 8.00
CCOC(=O)C(COC(=O)Oc1ccc(NC(=O)c2cccnc2-c2ccc(C(F)(F)F)cc2)c(C(=O)N(C)C)c1)(C(=O)OCC)c1ccccc1 [Example 2-25] | > 8.00
CCOC(=O)C(COC(=O)Oc1ccc(NC(=O)c2cnc(N(C)C)nc2-c2ccc(C(F)(F)F)cc2)c(C(=O)N(C)C)c1)(C(=O)OCC)c1ccccc1 [Example 2-28] | > 8.00
CCNC(=O)C(COC(=O)Oc1cc(C(=O)N(C)C)c(NC(=O)c2ccccc2-c2ccc(C(F)(F)F)cc2)cc1F)(C(=O)NCC)c1ccccc1 [Example 2-11] | 6.00 to 7.00
CCOC(=O)C(COC(=O)Oc1c(F)cc(NC(=O)c2ccccc2-c2ccc(C(F)(F)F)cc2)c(C(=O)N2CCC(O)CC2)c1F)(C(=O)OCC)c1cccs1 [Example 2-47] | 6.00 to 7.00
CCOC(=O)C(COC(=O)Oc1c(F)cc(NC(=O)c2ccccc2-c2ccc(C(F)(F)F)cc2)c(C(=O)N(C)CC(=O)OC)c1F)(C(=O)OCC)c1cccs1 [Example 2-42] | 7.00 to 8.00
CCOC(=O)C(COC(=O)Oc1ccc(NC(=O)c2ccccc2-c2ccc(C(F)(F)F)cc2)c(C(=O)N(C)C)c1Cl)(C(=O)OCC)c1ccccc1 [Example 2-22] | > 8.00
CCOC(=O)C(COC(=O)Oc1cc(C(=O)N(C)C)c(NC(=O)c2ccccc2-c2ccc(C(F)(F)F)cc2)cc1C)(C(=O)OCC)c1ccccc1 [Example 2-15] | > 8.00
CCOC(=O)C(COC(=O)Oc1ccc2c(c1)CCN2C(=O)c1ccccc1-c1ccc(C(F)(F)F)cc1)(C(=O)OCC)c1ccccc1 [Example 2-3] | 7.00 to 8.00
CCOC(=O)C(COC(=O)Oc1c(F)cc(NC(=O)c2ccc(OC)cc2-c2ccc(C(F)(F)F)cc2)c(C(=O)N(C)C)c1F)(C(=O)OCC)c1cccs1 [Example 2-37] | 7.00 to 8.00
CCOC(=O)C(COC(=O)Oc1c(F)cc(NC(=O)c2ccc(C(F)(F)F)cc2-c2ccc(C(F)(F)F)cc2)c(C(=O)N(C)C)c1F)(C(=O)OCC)c1cccs1 [Example 2-32] | > 8.00
CCOC(=O)C(COC(=O)Oc1ccc(NC(=O)c2ccc(C(F)(F)F)nc2-c2ccc(C(F)(F)F)cc2)c(C(=O)N(C)C)c1)(C(=O)OCC)c1ccccc1 [Example 2-16] | > 8.00
CCOC(=O)C(COC(=O)Oc1c(F)cc(NC(=O)c2ccccc2-c2ccc(C(F)(F)F)c(F)c2)c(C(=O)N(C)C)c1F)(C(=O)OCC)c1cccs1 [Example 2-40] | > 8.00
CCOC(=O)C(COC(=O)Oc1c(F)cc(NC(=O)c2ccccc2-c2ccc(C(F)(F)F)cc2)cc1F)(C(=O)OCC)c1cccs1 [Example 2-49] | > 8.00

The remaining lines, values ahead:

pIC50 | SMILES
> 8.00 | CCNC(=O)C(COCC(=O)Oc1ccc(NC(=O)c2ccccc2-c2ccc(C(F)(F)F)cc2)c(C(=O)N(C)C)c1)(C(=O)NCC)c1ccccc1 [Example 3-12]
> 8.00 | CCOC(=O)C(CC(=O)OCc1ccc(NC(=O)c2ccccc2-c2ccc(C(F)(F)F)cc2)c(C(=O)N(C)C)c1)(C(=O)OCC)c1ccccc1 [Example 3-5]
> 8.00 | CCOC(=O)C(CCC(=O)Oc1ccc(N(C)C(=O)c2ccccc2-c2ccc(C(F)(F)F)cc2)c(C(=O)N(C)C)c1)(C(=O)OCC)c1ccccc1 [Example 3-8]
> 8.00 | CCOC(=O)C(CC(=O)OCc1ccc(NC(=O)c2ccccc2-c2ccc(C(F)(F)F)cc2)c(C(=O)N(C)C)c1)(C(=O)OCC)c1ccccn1 [Example 3-23]
> 8.00 | CCOC(=O)C(CCC(=O)Oc1c(F)cc(NC(=O)c2ccc(C)cc2-c2ccc(C(F)(F)F)cc2)c(C(=O)N(C)C)c1F)(C(=O)OCC)c1cccs1 [Example 3-21]
> 8.00 | CCOC(=O)C(CCC(=O)Oc1c(F)cc(NC(=O)c2ccccc2-c2ccc(C(F)(F)F)cc2)c(C(=O)N(C)C)c1F)(C(=O)OCC)c1cccs1 [Example 3-20]
> 8.00 | CCOC(=O)C(CCC(=O)Oc1cc(C(=O)N(C)C)c(NC(=O)c2ccccc2-c2ccc(C(F)(F)F)cc2)cc1F)(C(=O)OCC)c1ccccc1 [Example 3-6]
> 8.00 | CCOC(=O)C(CCC(=O)Oc1c(F)cc(NC(=O)c2ccccc2-c2ccc(C(F)(F)F)cc2)c(C(=O)N(C)C)c1F)(C(=O)OCC)c1ccccc1 [Example 3-9]
